Reference: ChEMBL document CHEMBL1201862, “PubChem BioAssay data set” (2004)
Calls of active or inactive are those of the source.

Experiments:
[1] = fluconazole-exposed Candida albicans growth modulators – fluorescence, retest, confirmation (AID 2467); assay type: functional, cell-based
[2] = NIH-3T3 fibroblast cytotoxicity, dose response, cytotoxicity control, cell-based, fluorescence, Alamar Blue, secondary assay (AID 2327); assay type: functional;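 note: NIH-3T3 mouse fibroblasts cultured with fluconazole at 8 µg/mL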
Cytochrome P450 3A4 = Cytochrome P450 3A4 (Homo sapiens, UniProt P08684);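 note: CYP3A4 tested as one member of a cytochrome P450 panel screen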
Cytochrome P450 3A4, sequence (P08684 whole entry): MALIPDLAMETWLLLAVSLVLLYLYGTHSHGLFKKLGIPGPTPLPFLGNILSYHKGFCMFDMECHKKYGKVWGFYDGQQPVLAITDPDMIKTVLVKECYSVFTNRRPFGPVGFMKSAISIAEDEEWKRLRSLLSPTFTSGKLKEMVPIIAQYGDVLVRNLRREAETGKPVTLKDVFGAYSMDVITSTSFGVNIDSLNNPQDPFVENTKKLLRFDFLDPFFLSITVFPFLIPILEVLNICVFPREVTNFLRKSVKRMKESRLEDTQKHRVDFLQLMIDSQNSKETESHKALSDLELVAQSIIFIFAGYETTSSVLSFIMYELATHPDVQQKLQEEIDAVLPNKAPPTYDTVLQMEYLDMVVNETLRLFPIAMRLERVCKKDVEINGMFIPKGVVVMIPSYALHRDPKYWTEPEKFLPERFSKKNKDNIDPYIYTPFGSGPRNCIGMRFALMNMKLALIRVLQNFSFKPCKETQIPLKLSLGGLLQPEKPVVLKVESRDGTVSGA

Cytochrome P450 2C19 = Cytochrome P450 2C19 (Homo sapiens, UniProt P33261); assay: Cytochrome panel assay with activity outcomes. Panel member name: p450-cyp2c19 Compounds with AC50 equal or less than 10 uM are considered active; assay type: functional; conditions: read-out: AC50
Cytochrome P450 2C19, sequence (P33261 whole entry): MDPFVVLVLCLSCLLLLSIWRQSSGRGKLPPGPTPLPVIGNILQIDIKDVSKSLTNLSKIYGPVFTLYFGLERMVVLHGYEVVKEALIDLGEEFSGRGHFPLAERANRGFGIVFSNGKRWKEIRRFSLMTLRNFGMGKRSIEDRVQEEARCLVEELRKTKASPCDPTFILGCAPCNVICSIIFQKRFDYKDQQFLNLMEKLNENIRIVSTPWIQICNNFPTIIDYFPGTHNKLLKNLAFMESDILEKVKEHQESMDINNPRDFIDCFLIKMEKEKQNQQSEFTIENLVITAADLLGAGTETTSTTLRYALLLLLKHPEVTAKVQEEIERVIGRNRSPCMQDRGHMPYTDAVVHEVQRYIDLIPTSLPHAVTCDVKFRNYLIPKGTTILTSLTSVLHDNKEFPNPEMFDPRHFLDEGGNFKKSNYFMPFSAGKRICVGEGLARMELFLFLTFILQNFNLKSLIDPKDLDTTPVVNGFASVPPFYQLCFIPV

[3] = P. falciparum Dd2 growth inhibitors, dose response, SYBR Green, cherry-picked samples (AID 1159567); assay type: functional, cell-based
[4] = target: T1, Corticotropin-releasing factor receptor 2/Corticotropin-releasing factor-binding protein (Homo sapiens, UniProt P24387+Q13324); assay: activators of CRF receptor 2 with binding protein – uHTS hits, confirmation (AID 602473); assay type: functional; conditions: read-out: EC50_Mean
T1 sequence (Q13324 whole entry): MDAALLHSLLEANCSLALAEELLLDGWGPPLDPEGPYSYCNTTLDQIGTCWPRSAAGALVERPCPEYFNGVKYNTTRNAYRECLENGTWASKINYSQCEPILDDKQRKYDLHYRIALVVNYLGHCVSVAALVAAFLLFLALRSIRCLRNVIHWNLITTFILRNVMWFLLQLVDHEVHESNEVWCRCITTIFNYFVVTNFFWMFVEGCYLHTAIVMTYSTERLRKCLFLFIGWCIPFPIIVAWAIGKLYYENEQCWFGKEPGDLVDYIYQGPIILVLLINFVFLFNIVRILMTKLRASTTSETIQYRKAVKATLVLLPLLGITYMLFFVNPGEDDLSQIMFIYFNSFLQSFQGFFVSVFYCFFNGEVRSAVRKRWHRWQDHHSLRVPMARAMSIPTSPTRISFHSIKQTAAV
T1 sequence (P24387 whole entry): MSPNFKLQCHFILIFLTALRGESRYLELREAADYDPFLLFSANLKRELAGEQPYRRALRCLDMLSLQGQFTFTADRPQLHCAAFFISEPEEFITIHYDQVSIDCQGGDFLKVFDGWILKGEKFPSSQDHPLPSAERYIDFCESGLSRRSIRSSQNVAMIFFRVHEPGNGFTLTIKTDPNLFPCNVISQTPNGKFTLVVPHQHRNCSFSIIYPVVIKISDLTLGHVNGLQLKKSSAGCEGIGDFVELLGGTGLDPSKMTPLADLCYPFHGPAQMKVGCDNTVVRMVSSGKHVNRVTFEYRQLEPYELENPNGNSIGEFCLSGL

INS1 = assay: INS-1E survival protection against cytokine death – cell-based, luminescence, retest, dose response (AID 449756); assay type: functional; conditions: Rattus norvegicus;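 note: cell death triggered by IL-1 beta plus TNF-alpha plus IFN-gamma mixture; protective hits raise ATP signal compared with cytokine alone wells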
Cytochrome P450 2C9 = Cytochrome P450 2C9 (Homo sapiens, UniProt P11712)
Cytochrome P450 2C9, sequence (P11712 whole entry): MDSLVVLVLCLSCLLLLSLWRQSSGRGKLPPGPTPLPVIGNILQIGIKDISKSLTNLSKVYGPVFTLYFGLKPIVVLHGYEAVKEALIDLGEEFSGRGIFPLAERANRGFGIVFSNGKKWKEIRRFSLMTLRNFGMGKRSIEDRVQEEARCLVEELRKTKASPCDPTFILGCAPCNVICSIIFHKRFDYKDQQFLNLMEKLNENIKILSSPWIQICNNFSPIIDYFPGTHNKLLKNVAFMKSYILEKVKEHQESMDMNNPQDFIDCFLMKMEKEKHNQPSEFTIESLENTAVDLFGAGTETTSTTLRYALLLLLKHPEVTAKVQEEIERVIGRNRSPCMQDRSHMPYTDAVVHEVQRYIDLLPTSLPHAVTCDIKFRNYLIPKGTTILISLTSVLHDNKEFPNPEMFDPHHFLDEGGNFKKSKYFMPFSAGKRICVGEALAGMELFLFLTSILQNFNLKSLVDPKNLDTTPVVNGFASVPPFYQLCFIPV

[5] = Luminescence Cell-Based Dose Response HTS to Identify Inhibitors of 5'UTR Stem-Loop Driven Prion Protein mRNA Translation in H4 Neuroglioblastoma Cells. [Related pubchem assays: 1827 (Project Summary), 1813 (Primary HTS)]; assay type: functional
[6] = luciferase reporter signal suppression in cells – H4 neuroglioma cells, luminescence, dose response (AID 1990); assay type: functional, cell-based
[7] = target: T2, Heat shock factor protein 1 (Mus musculus, UniProt P38532); assay: decrease of HSF1-responsive luciferase luminescence – cell-based, NIH3T3, dose retest, confirmation (AID 2382); assay type: functional;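 note: NIH3T3 fibroblasts with HSF1-driven luciferase reporter stressed by proteasome inhibitor MG132; luminescence from HSF1-driven luciferase expression after 8 hours of MG132 stress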
T2 sequence (P38532 whole entry): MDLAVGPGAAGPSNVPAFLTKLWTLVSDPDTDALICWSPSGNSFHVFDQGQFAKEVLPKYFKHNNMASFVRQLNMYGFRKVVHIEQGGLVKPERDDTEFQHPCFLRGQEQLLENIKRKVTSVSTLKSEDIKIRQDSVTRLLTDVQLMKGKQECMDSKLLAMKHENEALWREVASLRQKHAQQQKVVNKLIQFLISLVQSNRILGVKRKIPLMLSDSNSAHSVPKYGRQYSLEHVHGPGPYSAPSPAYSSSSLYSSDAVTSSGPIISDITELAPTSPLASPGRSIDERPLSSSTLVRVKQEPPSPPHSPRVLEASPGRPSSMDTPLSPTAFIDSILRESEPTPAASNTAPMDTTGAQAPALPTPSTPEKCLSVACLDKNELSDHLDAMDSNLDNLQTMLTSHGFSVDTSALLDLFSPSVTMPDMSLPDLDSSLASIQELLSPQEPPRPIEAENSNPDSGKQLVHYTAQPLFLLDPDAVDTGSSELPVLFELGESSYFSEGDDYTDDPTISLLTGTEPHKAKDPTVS

Cytochrome P450 1A2 = target: T3, Cytochrome P450 1A2 (Homo sapiens, UniProt P05177);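 note: PubChem cytochrome P450 panel assay, CYP1A2 panel member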
T3 sequence (P05177 whole entry): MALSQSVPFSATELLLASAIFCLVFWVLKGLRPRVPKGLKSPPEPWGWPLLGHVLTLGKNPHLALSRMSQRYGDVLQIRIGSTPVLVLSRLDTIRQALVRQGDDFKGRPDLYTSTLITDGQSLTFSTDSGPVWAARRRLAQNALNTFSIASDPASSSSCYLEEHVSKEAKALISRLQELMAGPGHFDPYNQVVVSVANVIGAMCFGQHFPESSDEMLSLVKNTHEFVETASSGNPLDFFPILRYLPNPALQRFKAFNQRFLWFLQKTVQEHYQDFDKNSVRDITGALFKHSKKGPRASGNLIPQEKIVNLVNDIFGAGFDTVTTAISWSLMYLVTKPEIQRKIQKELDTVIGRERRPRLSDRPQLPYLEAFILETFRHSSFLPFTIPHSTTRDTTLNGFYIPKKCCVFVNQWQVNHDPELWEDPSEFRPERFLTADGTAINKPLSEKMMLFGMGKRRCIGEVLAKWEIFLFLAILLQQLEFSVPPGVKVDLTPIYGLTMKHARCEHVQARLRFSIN

[8] = alpha-synuclein stem-loop luciferase translation blockers – H4 neuroglioma cells, luminescence, confirmation (AID 1988); assay type: functional, cell-based
H9c2 = assay: cells; assay type: functional, cell-based; conditions: Rattus norvegicus, H9c2, Myocardium;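 note: confirmatory concentration-response retest of ultra-high-throughput screening hits for modulation of myocardial damage; cell death induced by hydrogen peroxide oxidative stress; compound pretreatment for 60 min then peroxide exposure for 2 h; potency is for protecting the cells against peroxide damage rather than for killing them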
[9] = system: Streptococcus sp. 'group A'; assay: Streptococcus pyogenes SK(-)GAS viability under kanamycin – luminescence, BacTiterGlo, confirmation, counter-screen for streptokinase expression inhibitor project, dose response (AID 1900); assay type: functional, organism-based
Streptokinase A = target: T4, Streptokinase A (Streptococcus pyogenes serotype M1, UniProt P10520); assay: viability-normalized secreted streptokinase activity reduction – plasminogen activation absorbance, OD405, dose response (AID 1914); assay type: functional, Streptococcus pyogenes M1 GAS;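 note: secreted streptokinase activity via plasminogen activation per viability signal from cell pellet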
T4 sequence (P10520 whole entry): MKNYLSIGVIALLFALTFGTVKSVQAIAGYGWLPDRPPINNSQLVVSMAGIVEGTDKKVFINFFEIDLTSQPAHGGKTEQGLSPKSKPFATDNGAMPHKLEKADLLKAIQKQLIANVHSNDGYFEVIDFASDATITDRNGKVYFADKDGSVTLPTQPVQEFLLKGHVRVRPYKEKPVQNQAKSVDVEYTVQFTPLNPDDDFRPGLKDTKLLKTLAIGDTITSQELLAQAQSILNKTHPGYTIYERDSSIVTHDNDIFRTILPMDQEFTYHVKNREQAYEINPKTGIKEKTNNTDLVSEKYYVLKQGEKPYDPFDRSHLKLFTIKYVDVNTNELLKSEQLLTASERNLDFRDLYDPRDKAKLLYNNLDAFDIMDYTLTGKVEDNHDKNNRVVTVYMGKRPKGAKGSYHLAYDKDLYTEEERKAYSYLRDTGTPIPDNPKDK

Streptococcus = assay: GAS UMAA2166 growth inhibition – luminescence, BacTiterGlo, counter-screen for streptokinase expression inhibitor project, dose response (AID 1915); assay type: functional, organism-based;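 note: potency for reduction of bacterial viability or growth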

NNC(=O)c1cc(-c2cccs2)nc2ccccc12
EC50 [1]: > 38 µM (not active)
EC50 [2]: > 150 µM (inactive)

O=C(N/N=C/c1ccco1)/C(=C/c1cccc([N+](=O)[O-])c1)NC(=O)c1ccccc1
AC50 (Cytochrome P450 3A4): 1.12 µM (inconclusive)
AC50 (Cytochrome P450 2C19): 1 µM (inconclusive)

CCS(=O)(=O)N1CCCCN2[C@H](CO)[C@H](c3ccc(-c4cccc(C#N)c4)cc3)[C@H]2C1
AC50 [3]: 7.45 µM (active)

CCOC(=O)N1CCN(C(=O)c2cnc3ccc(S(=O)(=O)N(C)c4cccc(C)c4)cc3c2O)CC1
EC50 [4]: 3.84 µM (active)

Cc1nnsc1-c1onc(C)c1C(=O)Nc1cc(Cl)cc(Cl)c1
AC50 (INS1): 12.8 µM (active)

COc1ccc(CNc2nc(-c3ccc(C(=O)N(C)C)cc3)nc3ccccc23)c(OC)c1
AC50 (Cytochrome P450 2C9): 1 µM (inconclusive)
AC50 (Cytochrome P450 3A4): 3.98 µM (inconclusive)

CC(=O)NC/C(C)=N\Nc1ccc([N+](=O)[O-])cc1
EC50 [2]: 33.9 µM (active)

COc1cccc(CNC(=O)c2cc3c(c(-c4cccc(-c5ccncc5)c4)n2)[C@H](CCO)N([S@@+]([O-])C(C)(C)C)C3)c1
AC50 [3]: 4.29 µM (active)

CCCCSc1nc(C)cc(C)c1S(=O)(=O)c1ccccc1C
AC50 (Cytochrome P450 2C9): 10 µM (inconclusive)
AC50 (Cytochrome P450 3A4): 28.2 µM (inconclusive)

CCOc1cc(CNc2ccc3c(c2)OCCO3)cc(Br)c1OC
EC50 [5]: 10.7 µM (active)
EC50 [6]: > 60 µM (inconclusive)

C[C@H](CO)N1C[C@H](C)[C@H](CN(C)C(=O)NC2CCCCC2)OCc2ccccc2-c2c(n(C)c3ccccc23)C1=O
AC50 [3]: 5.57 µM (active)

Brc1ccc(/C=C/C=N/Nc2nc3ccccc3s2)cc1
AC50 (Cytochrome P450 2C9): 7.08 µM (inconclusive)
EC50 [2]: 89.4 µM (inconclusive)

CC(=O)Nc1cccc(NC(=O)Nc2cccc(F)c2)c1
EC50 [1]: 3.22 µM (active)
EC50 [2]: > 150 µM (inactive)

CC1(C)CC(=O)C(CCC(=O)c2ccccc2)C(C)(C)N1 (configuration not stated)
AC50 (Cytochrome P450 3A4): 12.6 µM (inconclusive)
EC50 [7]: > 195 µM (not active)
AC50 (Cytochrome P450 2C19): 28.2 µM (inconclusive)

CN(C)c1ccc(C(c2ccc(N(C)C)cc2)c2ccc([N+](=O)[O-])cc2)cc1
AC50 (Cytochrome P450 3A4): 2 µM (inconclusive)
AC50 (Cytochrome P450 1A2): 3.16 µM (inconclusive)

COc1ccc(CC(=O)N/N=C(\C)c2ccccn2)cc1
EC50 [8]: 9.41 µM (active)
IC50 (H9c2): > 79 µM (inactive)
EC50 [5]: 9.61 µM (active)
EC50 [6]: 10.9 µM (active)

Cc1nc(NCCc2ccc(S(N)(=O)=O)cc2)c2c(C)c(C)sc2n1
AC50 (INS1): 5.52 µM (active)

Cc1ccc(NC(=O)c2cc(S(=O)(=O)NCCC3=CCCCC3)ccc2F)cc1
AC50 (INS1): 2.96 µM (active)

Cc1ccc(CSC(=N)Nc2ccccc2)cc1C
AC50 (Cytochrome P450 3A4): 3.16 µM (inconclusive)

Cc1ccsc1C(=O)OCC(=O)Nc1sccc1C(N)=O
EC50 [1]: 5.44 µM (active)
EC50 [2]: > 150 µM (inactive)

CC(C)[C@@H](C(=O)N1CCCC1)N1C(=O)N2CCc3c([nH]c4ccccc34)[C@@]2(C)C1=O
EC50 [8]: > 120 µM (not active)
EC50 [5]: > 120 µM (not active)
EC50 [6]: > 120 µM (not active)

CSc1n[nH]c(-c2sccc2OCc2ccc(C)cc2)n1
AC50 (Cytochrome P450 3A4): 20 µM (inconclusive)

C=CCSc1nnc(C)c(/C=C/Nc2ccc(Cl)cc2)n1
EC50 [4]: 4.77 µM (active)

CC(C)n1c(=O)c2c(=O)cc(O)oc2c2ccccc21
AC50 (Cytochrome P450 3A4): 2.51 µM (inconclusive)
EC50 [9]: 27.8 µM (active)
AC50 (Cytochrome P450 2C19): 10 µM (inconclusive)
EC50 (Streptokinase A): > 150 µM (not active)
EC50 (Streptococcus): > 150 µM (not active)

COc1ccc(-c2oc3ncn(CCN4CCOCC4)c(=N)c3c2-c2ccc(OC)cc2)cc1
EC50 [8]: 14.5 µM (active)
EC50 [5]: 19.6 µM (active)
EC50 [6]: 8.99 µM (active)

O=C(Cn1cccc1)NC1CCCCCC1
AC50 (Cytochrome P450 3A4): 17.8 µM (inconclusive)
AC50 (Cytochrome P450 2C19): 6.31 µM (inconclusive)

O=C(NCc1cccnc1)C(=O)Nc1nc(C23CC4CC(CC(C4)C2)C3)cs1
AC50 (INS1): 35.3 µM (active)

Cc1noc(C)c1S(=O)(=O)N(C)C[C@H]1OCc2ccccc2-c2c(n(C)c3ccccc23)C(=O)N([C@@H](C)CO)C[C@H]1C
AC50 [3]: 4.65 µM (active)

COc1ccc(CNC(=O)c2coc(=O)c3ccccc23)c(OC)c1
EC50 [8]: > 120 µM (not active)
EC50 [5]: > 120 µM (not active)
EC50 [6]: > 120 µM (not active)

O=C1C2C3C=CC([C@@H]2C(=O)N1C1CCCCC1)[C@H]1C(=O)N(C2CCCCC2)C(=O)C31 (some centres not stated)
AC50 (Cytochrome P450 2C9): 6.31 µM (inconclusive)
AC50 (Cytochrome P450 3A4): 3.55 µM (inconclusive)
AC50 (Cytochrome P450 2C19): 17.8 µM (inconclusive)

CCOC(=O)c1s/c(=N\C(=O)c2ccco2)n(C)c1C
EC50 [1]: 9.57 µM (active)
EC50 [2]: > 150 µM (inactive)

Oc1c(Cl)c(Cl)c(Cl)c(Cl)c1Cl [PENTACHLOROPHENOL]
EC50 [1]: 0.657 µM (active)
EC50 [2]: 75.3 µM (inconclusive)

CCCn1c(=O)c2[nH]c(-c3ccccc3)nc2n(CCC)c1=O
AC50 (Cytochrome P450 2C9): 1.58 µM (inconclusive)
AC50 (Cytochrome P450 3A4): 2.51 µM (inconclusive)
AC50 (Cytochrome P450 2C19): 10 µM (inconclusive)

CN(C)c1oc(-c2ccccc2Cl)nc1C#N
EC50 [8]: 33.3 µM (active)
EC50 [5]: 19.6 µM (active)
EC50 [6]: > 120 µM (not active)
